Experimental data taken from patent US20050026223A1, “Method and compositions for increasing bone mass” (The Board of Trustees of the University of Arkansas, priority 1999, published 2005).

Legend:
MLO-Y4 osteocytic cells [1] = test: Etoposide-induced apoptosis of MLO-Y4 osteocytic cells (trypan blue uptake); format: cell-based, murine; details: for Inhibition of etoposide-induced apoptosis of osteocytic cell line: 1 h pretreatment before etoposide, trypan blue after 6 h; for Antiapoptotic effect on osteocytes after ICI182,780: 1 h pretreatment with ICI182,780 10^−7 M
Method: Cells were pretreated with the indicated concentrations of the compounds for 1 hour before the addition of the pro-apoptotic agent etoposide. Apoptosis was determined after 6 hour by trypan blue uptake as described in FIG. 3. * indicates p<0.05 versus etoposide alone, by ANOVA (Student-Newman-Keuls method).
MLO-Y4 cells were pretreated for 1 hour with the pure receptor antagonist ICI182,780 (10^−7 M) before the addition of the test agents (10^−8 M). Apoptosis was induced and quantified as described in FIG. 3. * indicates p<0.05 versus etoposide alone, by ANOVA (Student-Newman-Keuls method).
In this experiment, MLO-Y4 cells were pretreated with the indicated concentrations of the various compounds for 1 h before the addition of the pro-apoptotic agent, etoposide. Apoptosis was determined after 6 h by trypan blue uptake as described in FIG. 3.

[2] = system: extracellular signal regulated kinases (ERKs) 1 and 2; test: Western blot of phosphorylated ERK1/2 in MLO-Y4 osteocytic cells; format: cell-based, murine; details: for Activation of ERKs (phosphorylated fraction of ERK1/2): 10^−8 M, 5, 15 or 30 minutes; for Ability to activate ERKs in the presence of PD98059: compound 10^−8 M, 5 minutes, 50 μM PD98059
Method: (§1) MLO-Y4 osteocytic cells were incubated for 25 minutes in serum-free medium. […] Cell lysates were prepared and proteins were separated by electrophoresis in polyacrylamide gels and transferred to PVDF membranes. Western blotting was performed using a specific antibody recognizing phosphorylated ERKs 1 and 2, followed by reblotting with an antibody recognizing total ERKs. Blots were developed by enhanced chemiluminescence.
MLO-Y4 cells were incubated for 25 minutes in serum-free medium in the presence or absence of 50 μM PD98059. […] Cell lysates were prepared and proteins were separated by electrophoresis in polyacrylamide gels and transferred to PVDF membranes. Western blotting was performed using a specific antibody recognizing phosphorylated ERKs 1 and 2, followed by reblotting with an antibody recognizing total ERKs. Blots were developed by enhanced chemiluminescence.
as §1, with “In this experiment, MLO-Y4” for “MLO-Y4”, “extracellular signal regulated kinases” for “ERKs”, “extracellular signal regulated kinases.” for “ERKs.”, “chemiluminescence. […] This effect is too rapid to be accounted for by the classical mechanism of estrogen action.” for “chemiluminescence.”
In this experiment, MLO-Y4 osteocytic cells were incubated for 25 minutes in serum-free medium in the presence or absence of 50 μM PD98059. […] Cell lysates were prepared and proteins were separated by electrophoresis in polyacrylamide gels and transferred to PVDF membranes. Western blotting was performed using a specific antibody recognizing phosphorylated extracellular signal regulated kinases 1 and 2, followed by reblotting with an antibody recognizing total extracellular signal regulated kinases. Blots were developed by enhanced chemiluminescence.

[3] = system: osteoblastic cells derived from murine calvaria; test: Etoposide-induced apoptosis of osteoblastic cells derived from murine calvaria (trypan blue uptake); format: cell-based; details: for Anti-apoptotic effect on osteoblastic cells after ICI182,780: compound 10^−8 M, 1 h pretreatment with ICI182,780 10^−7 M; for Lowest Effective Concentration: inhibition of etoposide-induced osteoblast apoptosis, 1 hour pretreatment, trypan blue after 6 hours; for Suppression by 10^−8 M Flutamide: suppression of the anti-apoptotic effect by the androgen receptor antagonist flutamide
Method: Osteoblastic cells derived from murine calvaria were pretreated with the sterols for 1 hour before the addition of the pro-apoptotic agent, etoposide. Apoptosis was determined after 6 hours by trypan blue uptake (Jilka et al, J. Bone and Min. Res. 13:793:802, 1998). * indicates p<0.05 versus etoposide alone, by analysis of variance (ANOVA) (Student-Newman-Keuls method).
Osteoblastic cells derived from murine calvaria were pretreated for 1 hour with the pure receptor antagonist ICI182,780 (10^−7 M) before the addition of the test agents (10^−8 M). Apoptosis was induced and quantified as described in FIG. 3. * indicates p<0.05 versus etoposide alone, by ANOVA (Student-Newman-Keuls method).
In this experiment, osteoblastic cells were derived from murine calvaria and were pretreated with the sterols for 1 hour before the addition of the pro-apoptotic agent, etoposide.
In these experiments, cells were pretreated with the indicated concentrations of the various compounds for 1 hour, in the absence or presence of the androgen receptor antagonist flutamide, before the addition of the proapoptotic agent etoposide. Apoptosis was determined after 6 hours by trypan blue uptake as described in FIG. 3.

wild type HeLa cells = test: Etoposide-induced apoptosis of wild type HeLa cells; format: cell-based, human; details: compound 10^−8 M 1 h, etoposide 5×10^−5 M 6 hour
Source text: CMV promoter alone and CMV promoter-driven cDNA for mERα or mErβ were stably transfected into HeLa cells. […] Cells were trypsinized, pelleted and trypan blue positive cells enumerated. Each bar represents mean of duplicate experiments ±SEM. *P<0.02 versus etoposide alone.
(§2) In this experiment, instead of calvaria cells, human HeLa cells which contain undetectable, if any, estrogen receptor were used. HeLa cells were stably transfected with either a CMV promoter-driven cDNA for the murine estrogen receptor-alpha (mERα) or a CMV promoter-driven cDNA for the murine estrogen receptor-beta (mERβ). […] Cells were trypsinized, pelleted and trypan blue positive cells were enumerated.

[4] = system: HeLa cells transfected with estrogen receptor β (mERβ); test: Etoposide-induced apoptosis of HeLa cells stably transfected with mERβ; format: cell-based, human; details: compound 10^−8 M 1 h, etoposide 5×10^−5 M 6 hour
Source text: (§3) CMV promoter alone and CMV promoter-driven cDNA for mERα or mErβ were stably transfected into HeLa cells. […] Cells were trypsinized, pelleted and trypan blue positive cells enumerated.
as §2

MLO-Y4 osteocytic cells [5] = test: Dexamethasone-induced apoptosis of MLO-Y4 osteocytic cells with PD98059; format: cell-based, murine; details: compound 10^−8 M; PD98059 1 hour; dexamethasone 6 hours
Method: Apoptosis was induced by incubation with the pro-apoptotic agent dexamethasone for 6 hour and quantified as described in FIG. 3. * indicates p<0.05 versus the corresponding control group without dexamethasone, by ANOVA (Student-Newman-Keuls method).
That indeed the anti-apoptotic effect of all the compounds tested herein was mediated via activation of ERKs was established by the results of the experiments shown in FIG. 10. […] Apoptosis was induced by incubation with the pro-apoptotic agent dexamethasone for 6 hours and quantified as described in FIG. 3.

[6] = system: HeLa cells transfected with the estrogen receptor α (mERα); test: Etoposide-induced apoptosis of HeLa cells stably transfected with mERα; format: cell-based, human; details: compound 10^−8 M 1 h, etoposide 5×10^−5 M 6 hour
Source text: as §3, §2

osteoclasts = details: increased from approximately 0.5%; cited from earlier work
[7] = for at least four years; cited from earlier work
[8] = rats, intravenously; cited from earlier work
[9] = human iliac trabecular bone, after one year of treatment; cited from earlier work
osteoblasts = details: intermittent administration in mice; decreased from 1.7-2.2%; cited from earlier work

Question: Which “Inhibition of etoposide-induced apoptosis of osteocytic cell line” value (MLO-Y4 osteocytic cells [1]) does the source give for C[C@]12CC[C@@H]3c4ccc(O)cc4CC[C@H]3[C@@H]1CC[C@H]2O [17α-estradiol] here?
Answer: The value was “dose-dependently inhibited”.

Question: And the “Antiapoptotic effect on osteocytes after ICI182,780” value (MLO-Y4 osteocytic cells [1])?
Answer: The value was “abrogated”.

Question: And the “Activation of ERKs (phosphorylated fraction of ERK1/2)” value [2]?
Answer: The value was “activated”.

Question: And the “Ability to activate ERKs in the presence of PD98059” value [2]?
Answer: Its value is “abrogated”.

Question: What about the “Anti-apoptotic effect on osteoblastic cells after ICI182,780” value [3] of the same molecule?
Answer: The value was “abrogated”.

Question: And the “Effect on etoposide-induced apoptosis” value (wild type HeLa cells)?
Answer: Its value is “none of the three compounds had any effect”.

Question: What about the “Effect on etoposide-induced apoptosis” value [4] of the same molecule?
Answer: The value was “potently inhibited”.

Question: And the “Anti-apoptotic effect after PD98059 pretreatment” value (MLO-Y4 osteocytic cells [5])?
Answer: The value was “prevented the anti-apoptotic effect”.

Question: And the “Effect on etoposide-induced apoptosis” value [6]?
Answer: Its value is “potently inhibited”.

Question: Which “Lowest Effective Concentration” value [3] does the source give for C[C@]12CCC(=O)C[C@@H]1CC[C@@H]1[C@@H]2CC[C@]2(C)[C@@H](O)CC[C@@H]12 [5-α-dihydrotestosterone] here?
Answer: Its value is 10^−9 M.

Question: What about the “Suppression by 10^−8 M Flutamide” value [3] of the same molecule?
Answer: Its value is “yes”.

Question: Which “Lowest Effective Concentration” value [3] does the source give for C[C@]12CC[C@H](OS(=O)(=O)O)CC1=CC[C@@H]1[C@@H]2CC[C@]2(C)C(=O)CC[C@@H]12 [Dehydroisoandrosterone-3-sulfate (DHES), Dehydroisoandrosterone-3-sulfate] here?
Answer: Its value is 10^−8 M.

Question: And the “Suppression by 10^−8 M Flutamide” value [3]?
Answer: The value was “no*”.

Question: Which “Inhibition of etoposide-induced apoptosis of osteocytic cell line” value (MLO-Y4 osteocytic cells [1]) does the source give for C[C@]12CC[C@@H]3c4ccc(O)cc4CC[C@H]3[C@@H]1CC[C@@H]2O [17β-estradiol, reference compound] here?
Answer: The value was “dose-dependently inhibited”.

Question: And the “Antiapoptotic effect on osteocytes after ICI182,780” value (MLO-Y4 osteocytic cells [1])?
Answer: Its value is “abrogated”.

Question: And the “Activation of ERKs (phosphorylated fraction of ERK1/2)” value [2]?
Answer: The value was “activated”.

Question: What about the “Ability to activate ERKs in the presence of PD98059” value [2] of the same molecule?
Answer: Its value is “abrogated”.

Question: And the “Inhibition of etoposide-induced osteoblast apoptosis” value ([3]; 1 hour pretreatment before etoposide)?
Answer: The value was “prevented apoptosis of osteoblastic cells isolated from murine calvaria, in a dose dependent manner”.

Question: What about the “Anti-apoptotic effect on osteoblastic cells after ICI182,780” value [3] of the same molecule?
Answer: Its value is “abrogated”.

Question: What about the Apoptosis of osteoclasts (osteoclasts) of the same molecule?
Answer: Its Apoptosis of osteoclasts is ≤ 2.7%.

Question: What about the “Effect on etoposide-induced apoptosis” value (wild type HeLa cells) of the same molecule?
Answer: The value was “none of the three compounds had any effect”.

Question: And the “Effect on etoposide-induced apoptosis” value [4]?
Answer: Its value is “potently inhibited”.

Question: What about the “Anti-apoptotic effect after PD98059 pretreatment” value (MLO-Y4 osteocytic cells [5]) of the same molecule?
Answer: The value was “prevented the anti-apoptotic effect”.

Question: What about the “Effect on etoposide-induced apoptosis” value [6] of the same molecule?
Answer: Its value is “potently inhibited”.

Question: For C[C@]12CCC(=O)C[C@@H]1CC[C@@H]1[C@@H]2CC[C@]2(C)[C@@H](O)CC[C@@H]12 [5-β-dihydrotestosterone], which “Lowest Effective Concentration” value [3] is on record?
Answer: Its value is 10^−10 M.

Question: What about the “Suppression by 10^−8 M Flutamide” value [3] of the same molecule?
Answer: Its value is “yes”.

Question: For [F-].[Na+] [sodium fluoride], which “Increase of vertebral bone mass” value [7] is on record?
Answer: Its value is 10 % a year.

Question: With C[C@]1(O)CC[C@H]2[C@@H]3CCC4=CC(=O)CCC4=C3C=C[C@@]21C [RU1881] as the molecule, how does the “Lowest Effective Concentration” value [3] read?
Answer: The value was 10^−8 M.

Question: And the “Suppression by 10^−8 M Flutamide” value [3]?
Answer: The value was “yes”.

Question: What does the source list for C[C@]12CCC(=O)C=C1CC[C@@H]1[C@@H]2CC[C@]2(C)C(=O)CC[C@@H]12 [4-androstene-3,17-dione]?
Answer: Lowest Effective Concentration [3]: 10^−8 M; Suppression by 10^−8 M Flutamide [3]: yes

Question: Which “Lowest Effective Concentration” value [3] does the source give for C[C@]12CC[C@H]3[C@@H](CCC4=CC(=O)CC[C@@]43C)[C@@H]1CC[C@@H]2O [Testosterone] here?
Answer: The value was 10^−9 M.

Question: What about the “Suppression by 10^−8 M Flutamide” value [3] of the same molecule?
Answer: The value was “yes”.

Question: Which “Lowest Effective Concentration” value [3] does the source give for C[C@]12CC[C@H]3[C@@H](CC=C4C[C@@H](O)CC[C@@]43C)[C@@H]1CC[C@@H]2O [5-androstene-3β-17_-diol] here?
Answer: The value was 10^−8 M.

Question: What about the “Suppression by 10^−8 M Flutamide” value [3] of the same molecule?
Answer: The value was “yes”.

Question: Which LD50 [8] does the source give for CC(=O)N[C@@H](CS)C(=O)O [N-acetylcysteine, acetamido-mercaptopropionic acid] here?
Answer: The LD50 was 1140 mg/kg.

Question: For CC(O)(P(=O)(O)O)P(=O)(O)O [etidronate], which “Reduction of resorption depth” value [9] is on record?
Answer: The value was ~30%.

B1: PTH: parathyroid hormone, an agent known for its role in calcium homeostasis (protein, UniProt P01270 32-115, looked up)
Parathyroid hormone: SVSEIQLMHNLGKHLNSMERVEWLRKKLQDVHNFVALGAPLAPRDAGSQRPRKKEDNVLVESHEKSLGEADKADVNVLTKAKSQ
modifications: Parathyroid hormone
notes: parathyroid hormone, an agent known for its role in calcium homeostasis
Question: With B1 as the molecule, how does the “Prevalence of osteoblast apoptosis” value (osteoblasts) read?
Answer: The value was 0.1-0.4%.
